Results from article PMC7374098, “Design of thienopyranone-based BET inhibitors that bind multiple synthetic lethality targets” (Scientific Reports, 2020).

What was measured:
PI3Kα = biological target: T1, PI3Kα (Homo sapiens, UniProt P42336); experiment: PI3K kinase screening assay (ADAPTA); type: biochemical
T1 construct: purchased Life Technologies (Thermo Fisher Scientific)
Procedure: (§1) In effort to enhance its potency, we designed a new set of chemotypes by in silico screening. […] These compounds were synthesized and their activities toward BRD4BD1 and BRD4BD2 were assessed in a displacement binding assay using the polyacetylated histone H4 peptide H4K5acK8acK12acK16ac as a ligand (Fig. 1b).
(§2) PI3K activity screening and IC50 measurements were performed by Life Technologies (Thermo Fisher Scientific) using ADAPTA, a fluorescence-based in vitro assay.

BRD4BD2 = biological target: T2, BRD4BD2 (Homo sapiens, UniProt O60885); experiment: AlphaScreen displacement binding assay with tetra-acetylated histone H4 peptide, BRD4BD2; conditions: displacement of H4K5acK8acK12acK16ac peptide
T2 construct: His; purchased Reaction Biology
Procedure: as §1, §2

BRD4BD1 = biological target: T3, BRD4BD1 (Homo sapiens, UniProt O60885); experiment: AlphaScreen displacement binding assay with tetra-acetylated histone H4 peptide, BRD4BD1; conditions: for IC50: displacement of H4K5acK8acK12acK16ac peptide
T3 construct: His; purchased Reaction Biology
Procedure: as §1, §2

[1] = test system: Huh7 subcutaneous xenografts; experiment: Huh7 subcutaneous xenograft in NGS mice; type: in vivo; conditions: 30 mg/kg oral gavage, one week
Procedure: (§7) Asterisks denote p ≤ 0.05 in comparison with vehicle control by unpaired Student’s t test.
(§8) All procedures involving animals were approved by the UCSD Animal Care Committee, which serves to ensure that all federal guidelines concerning animal experimentation are met. Six to eight week old NGS mice were implanted with 10^7 Huh7 or Jeko-1 cells in the right flank. When tumors reached ∼100 mm^3 after tumor implantation, animals were divided into four groups (n = 8 per group). […] Mice were treated for 1 week by oral gavage, 5 times per week.

JeKo-1 cells [2] = experiment: Propidium iodide flow cytometry cell cycle analysis, JeKo-1; type: cell-based; conditions: 24 h
Procedure: (§3) (Fig. 2a). […] Palbociclib was used as control given its known inhibition of CDK4/6 and resultant G1 cell cycle growth arrest. […] We next assessed the level of apoptosis by FITC-annexin V incorporation in each of these cell lines.
(§4) Huh7, CHLA-255, or Jeko-1 cells were seeded at 1.5 × 10^6 cells in 60-mm tissue culture dishes and allowed to adhere overnight. […] Cells were released with Accutase (Innovative Cell Technologies, San Diego, CA), washed with PBS and divided for either staining with the FITC Annexin V Apoptosis Detection Kit (BD Biosciences, San Jose, CA) or overnight fixation with ethanol followed by staining with propidium iodide (Roche, Basel, Switzerland) according to each manufacturers’ instructions. Cell staining was analyzed with the FACSCalibur flow cytometer (BD Biosciences) and FlowJo (FlowJo LLC, Ashland, Oregon) and ModFit LT (Verity Software House, Topsham, ME) software packages.

CHLA-255 cells = experiment: Propidium iodide flow cytometry cell cycle analysis, CHLA-255; type: cell-based; conditions: 24 h
Procedure: as §3, §4

CDK4 = test system: CDK4; parameters: method as in PMID 32793389; conditions: previously identified; cited from earlier work
Huh7 cells [3] = experiment: FITC-annexin V apoptosis assay, Huh7; type: cell-based; conditions: treatment at the IC50, 24 h
Procedure: as §3, §4

[4] = test system: JeKo-1 subcutaneous xenografts; experiment: JeKo-1 subcutaneous xenograft in NGS mice; type: in vivo; conditions: 40 mg/kg oral gavage, one week
Procedure: as §7, §8

Huh7 cells [5] = experiment: Propidium iodide flow cytometry cell cycle analysis, Huh7; type: cell-based; conditions: 24 h
Procedure: as §3, §4

JeKo-1 cells [6] = experiment: CellTiter-Glo cell viability assay, JeKo-1; type: cell-based; conditions: Homo sapiens, mantle cell lymphoma, 48 h, read-out: IC50 anti-proliferative activity, JeKo-1
From the text: (§5) Although many inhibitors of BRD4 have been developed, the importance of inhibition of both BDs to subdue pathological processes remains unclear, as the two bromodomains have high sequence similarity. We therefore examined whether inhibition of only one bromodomain of BRD4 could lead to sufficient anti-cancer effects.
(§6) All cell lines were obtained from ATCC and tested for mycoplasma and mouse pathogens and checked for authenticity against the International Cell Line Authentication Committee (ICLAC; https://iclac.org/databases/cross-contaminations/) list. Cell viability measurements were performed using CellTiter-Glo luminescent cell viability assay (Promega). […] Cell Titer Glow assay reagent (100 µl) was added to each well and incubated for 10 min at room temperature. Luminescence signal was measured in a Varioscan multimode reader.

PC3 cells = experiment: CellTiter-Glo cell viability assay, PC3; type: cell-based; conditions: PTEN mutated, 48 h
From the text: as §5, §6

Z138 cells = experiment: CellTiter-Glo cell viability assay, Z138; type: cell-based; conditions: Homo sapiens, Z-138, mantle cell lymphoma, 48 h, read-out: IC50 anti-proliferative activity, Z138
From the text: as §5, §6

SKNBE-2 cells = experiment: CellTiter-Glo cell viability assay, SKNBE-2; type: cell-based; conditions: Homo sapiens, SKNBE2, 48 h, read-out: IC50 anti-proliferative activity, neuroblastoma (SKNBE-2)
From the text: as §5, §6

[7] = test system: AKT phosphorylation at Ser473 (PI3K activity) in JeKo-1 cells; experiment: Western blot of AKT phosphorylation at Ser473 in IgM-stimulated JeKo-1 cells; type: cell-based; conditions: JeKo-1 cells stimulated with IgM, 1 h incubation, increasing concentrations up to 5 µM
Procedure: as §5
Cells were resuspended with 1 ml of RPMI-1640 (serum free) and stimulated with 10 µg/ml of goat F(ab) 2 anti-human IgM antibody (Southern Biotech Birmingham, AL, USA) at 37 °C for 10 min. Cells were then harvested and lysed with RIPA buffer followed by Western blot analysis for pAKT expression.

Mino cells = experiment: CellTiter-Glo cell viability assay, Mino; type: cell-based; conditions: Homo sapiens, mantle cell lymphoma, 48 h, read-out: IC50 anti-proliferative activity, Mino
From the text: as §5, §6

HCT116 cells = experiment: CellTiter-Glo cell viability assay, HCT116; type: cell-based; conditions: Homo sapiens, HCT-116, 48 h, read-out: IC50 anti-proliferative activity, colon carcinoma (HCT116)
From the text: as §5, §6

T1 sequence (P42336 whole entry): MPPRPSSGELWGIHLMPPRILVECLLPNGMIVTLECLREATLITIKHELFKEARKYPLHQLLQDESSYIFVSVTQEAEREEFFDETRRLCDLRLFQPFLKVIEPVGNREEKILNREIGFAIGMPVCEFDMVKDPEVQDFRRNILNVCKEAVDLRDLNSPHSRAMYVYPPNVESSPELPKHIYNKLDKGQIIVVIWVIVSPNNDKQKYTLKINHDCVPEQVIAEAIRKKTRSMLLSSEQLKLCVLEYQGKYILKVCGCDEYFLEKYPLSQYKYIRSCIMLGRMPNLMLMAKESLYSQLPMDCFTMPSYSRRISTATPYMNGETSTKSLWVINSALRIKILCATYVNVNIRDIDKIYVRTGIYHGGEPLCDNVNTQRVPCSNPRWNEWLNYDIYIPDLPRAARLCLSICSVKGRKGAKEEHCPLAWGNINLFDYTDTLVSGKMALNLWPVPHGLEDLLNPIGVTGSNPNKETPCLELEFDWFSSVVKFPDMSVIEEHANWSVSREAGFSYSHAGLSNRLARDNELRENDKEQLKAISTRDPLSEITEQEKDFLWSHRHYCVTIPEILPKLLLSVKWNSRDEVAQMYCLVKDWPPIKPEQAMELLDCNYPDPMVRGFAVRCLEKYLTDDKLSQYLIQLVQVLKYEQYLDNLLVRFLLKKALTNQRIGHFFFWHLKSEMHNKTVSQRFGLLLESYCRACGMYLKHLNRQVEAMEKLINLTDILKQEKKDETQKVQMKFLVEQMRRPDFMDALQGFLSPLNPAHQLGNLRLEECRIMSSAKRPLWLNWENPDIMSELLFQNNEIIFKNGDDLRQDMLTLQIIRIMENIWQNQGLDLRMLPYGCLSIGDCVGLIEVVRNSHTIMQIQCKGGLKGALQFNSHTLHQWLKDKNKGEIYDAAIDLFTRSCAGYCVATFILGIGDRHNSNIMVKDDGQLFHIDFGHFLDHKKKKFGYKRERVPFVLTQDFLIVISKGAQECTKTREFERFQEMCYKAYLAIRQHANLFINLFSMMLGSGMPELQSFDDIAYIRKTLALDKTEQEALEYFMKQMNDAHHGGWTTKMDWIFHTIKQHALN
T1 sequence (P27986 whole entry partner): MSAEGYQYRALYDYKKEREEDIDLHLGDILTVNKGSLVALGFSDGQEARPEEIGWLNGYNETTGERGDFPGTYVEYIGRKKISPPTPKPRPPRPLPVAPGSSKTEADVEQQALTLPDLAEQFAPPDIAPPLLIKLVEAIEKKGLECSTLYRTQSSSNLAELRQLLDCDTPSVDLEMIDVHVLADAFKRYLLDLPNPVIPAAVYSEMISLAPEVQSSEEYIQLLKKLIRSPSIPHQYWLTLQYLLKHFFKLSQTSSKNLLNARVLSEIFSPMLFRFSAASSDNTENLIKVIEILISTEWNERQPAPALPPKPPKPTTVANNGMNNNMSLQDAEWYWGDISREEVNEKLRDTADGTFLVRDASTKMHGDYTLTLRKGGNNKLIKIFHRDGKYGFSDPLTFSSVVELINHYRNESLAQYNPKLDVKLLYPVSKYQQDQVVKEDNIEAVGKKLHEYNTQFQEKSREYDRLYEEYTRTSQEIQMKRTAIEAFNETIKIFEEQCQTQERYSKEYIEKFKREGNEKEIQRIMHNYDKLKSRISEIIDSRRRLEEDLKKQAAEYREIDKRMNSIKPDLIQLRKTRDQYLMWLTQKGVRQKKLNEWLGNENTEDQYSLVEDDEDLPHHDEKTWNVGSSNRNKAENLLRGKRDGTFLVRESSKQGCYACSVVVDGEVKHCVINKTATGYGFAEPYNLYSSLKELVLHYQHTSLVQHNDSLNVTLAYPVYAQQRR

Row | SMILES | IC50 (PI3Kα) | IC50 (BRD4BD2) | IC50 (BRD4BD1) | IC50 (JeKo-1 cells [6]) | cytotoxic activity in prostate cancer cell line PC3 (PC3 cells) | IC50 (Z138 cells) | IC50 (SKNBE-2 cells) | AKT phosphorylation at Ser473 [7] | IC50 (Mino cells) | other results
1 | O=c1cc(N2CCNCC2)oc2c(-c3ccc4c(c3)OCCO4)csc12 [SF2523P] | 48700 nM | 15700 nM | 388 nM |  |  |  |  |  |  | 
2 | CN(C)C(=O)c1cc2cnc(Nc3ccc(-c4csc5c(=O)cc(N6CCOCC6)oc45)cc3)nc2n1C1CCCC1 [SRX3177] |  |  |  |  |  |  |  |  |  | tumor growth vs vehicle control, Huh7 xenograft [1]: significant abrogation of tumor growth; cell cycle arrest at higher doses (near the IC50), JeKo-1 (JeKo-1 cells [2]): induced G2 phase growth arrest; cell cycle arrest at low dosage (near the IC10), JeKo-1 (JeKo-1 cells [2]): induction of G1 cell cycle arrest; cell cycle arrest at low dosage (near the IC10), CHLA-255 (CHLA-255 cells): induction of G1 cell cycle arrest; IC50 (CDK4): 2.5 nM; induction of early apoptosis, Huh7 (Huh7 cells [3]): ~ threefold; tumor growth vs vehicle control, JeKo-1 xenograft [4]: significant abrogation of tumor growth; mortality (mouse, in vivo, po): no treatment-related death; adverse effects / toxicity (oral gavage, one week): no adverse effects were noted; animal weight (oral gavage, one week, vs vehicle): remained the same; cell cycle arrest at higher doses (near the IC50), Huh7 (Huh7 cells [5]): induced G2 phase growth arrest; cell cycle arrest at low dosage (near the IC10), Huh7 (Huh7 cells [5]): induction of G1 cell cycle arrest
3 | O=C(NCc1cccnc1)c1cc(-c2csc3c(=O)cc(N4CCNCC4)oc23)cc2c1OCCO2 [SRX3212P] | 5700 nM | 2810 nM | 27 nM | 3100 nM | Neither inhibitor sensitized | 2900 nM | 15000 nM | did not decrease AKT phosphorylation | 3900 nM | 
4 | O=C(NCc1cccnc1)c1cc(-c2csc3c(=O)cc(N4CCOCC4)oc23)cc2c1OCCO2 [SRX3212] | 22 nM | 32 nM | 3.7 nM | 280 nM | Neither inhibitor sensitized | 240 nM | 3200 nM | concomitant decrease in levels of AKT phosphorylation at Ser473 | 440 nM | IC50 (HCT116 cells): 1300 nM; increase in potency of SRX3212 compared to SRX3212P (BRD4BD1; BRD4BD1): sevenfold
